In patent publication US20170354152A1, “PESTICIDAL COMPOSITION AND METHOD FOR CONTROLLING PESTS” (priority 2015, published 2017):

Legend:
Format in all cases: in vivo
[1] = system: southern root-knot nematode (Meloidogyne incognita); experiment: Test Example 1: immersion of second stage juveniles in chemical solution, mobility inhibition; details: compound alone, 24 hours, 25° C.
Method: About 50 larvae at second stage juveniles of southern root-knot nematode (Meloidogyne incognita) were immersed in a chemical solution diluted to a predetermined concentration with distilled water and kept for 24 hours in a constant temperature room at 25° C. […] From these values, the mobility inhibition rate was determined by the following formula.
Mobility inhibition rate (%)=[1-{(1-B/A)/(1-B′/A′)}]×100
Further, a theoretical value (%) of the mobility inhibition rate was calculated by the Colby's formula and is also shown in brackets ( ) in Table 1. The measured value (%) of the mobility inhibition rate is higher than the theoretical value (%), and thus, the composition of the present invention has a synergistic effect for controlling nematode.

[2] = system: southern root-knot nematode (Meloidogyne incognita); experiment: Example 2: pot test, contaminated soil mixed with test agents, tomato seedlings, root knot index; details: compound alone, 35th day after transplantation, non-treated area being 100
Method: 1 Liter of sand soil obtained by mixing paddy steam sterilization soil, sand soil and soil contaminated with southern root-knot nematode (Meloidogyne incognita) in a volume ratio of 2:2:1, was put into a 1/1,000,000 ha pot, and predetermined amounts of test agents were added and mixed, Immediately after addition of the test agents, the mixture was sufficiently mixed, and then, seedlings of tomato (cultivar: kyoryoku bei ju) were transplanted. On the 35th day after transplantation, the root knot index (0 to 100%) formed by nematode was visually determined. The test was carried out by two replications.
Further, a theoretical value determined by the Colby's formula is shown in brackets ( ) in Table 2.

[3] = system: southern root-knot nematode (Meloidogyne incognita); experiment: Example 3: cup test, contaminated soil mixed with test agents, cucumber seeds, control value from root knot index; details: compound alone, 26th day after seeding, =100−the root knot index
Method: Soil contaminated with southern root-knot nematode (Meloidogyne incognita) was put in a 200 ml polypropylene cup, and predetermined amounts of test agents were added and mixed. Immediately after the addition of the test agents, the mixture was thoroughly mixed and then seeded with three seeds of cucumber. On the 26th day after seeding, the root knot index (0 to 100%) formed by nematode was visually determined.
As the test results, from the root knot index based on the root knot index in the non-treated area being 100, the control value (=100−the root knot index) was calculated, and the results are shown in Tables 3 and 4. Further, a theoretical value obtained by the Colby's formula (=Control value of compound A+Control value of compound B−((Control value of compound A×Control value of compound B)/100)) is also shown in brackets ( ) in Tables 3 and 4.

Compound	inhibition at 0.31 ppm ([1]; Meloidogyne incognita, 0.31 ppm, read-out: Mobility inhibition rate (%))	inhibition at 0.63 ppm ([1]; Meloidogyne incognita, 0.63 ppm, read-out: Mobility inhibition rate (%))	inhibition at 1.25 ppm ([1]; Meloidogyne incognita, 1.25 ppm, read-out: Mobility inhibition rate (%))	inhibition at 2.5 ppm ([1]; Meloidogyne incognita, 2.5 ppm, read-out: Mobility inhibition rate (%))	inhibition at 5 ppm ([1]; Meloidogyne incognita, 5 ppm, read-out: Mobility inhibition rate (%))	Average root knot index ([2]; 3000 g/ha)	Control value ([3]; 125 g/ha)	Control value ([3]; 188 g/ha)	Control value ([3]; 250 g/ha)	Control value ([3]; 375 g/ha)	Control value ([3]; 500 g/ha)	Mobility inhibition rate (%) ([1]; 0.31 ppm)	Mobility inhibition rate (%) ([1]; 0.63 ppm)	Mobility inhibition rate (%) ([1]; 1.25 ppm)	Mobility inhibition rate (%) ([1]; 2.5 ppm)	Mobility inhibition rate (%) ([1]; 5 ppm)	Average root knot index ([2]; 2500 g/ha)	Control value ([3]; 200 g/ha)
CCOP(=O)(SC(C)CC)N1CCSC1=O (stereo not drawn) [Fosthiazate, fosthiazate]	0.2%	15%	22.7%	55.7%	96.2%	11.4	70.0	73.3	83.3	90.0	90.0	–	–	–	–	–	–	–
O=S(=O)(CCC(F)=C(F)F)c1ncc(Cl)s1 [Fluensulfone, fluensulfone]	–	–	–	–	–	–	–	–	–	–	–	36.4%	41.7%	48.1%	54.7%	69.1%	25.7	73.3
